{
  "source": "patent US4211794A",
  "about": "“N,N-Disubstituted aminomethylphenylethanolamines” (Pfizer Inc., priority 1979, dated 1980)",
  "key": {"B-16 cells": {"test_system": "B-16 cells", "assay": "Peritoneal Exudate Cell Mediated Cytotoxicity in Vitro (macrophages from drug-injected mice)", "type": "cell-based", "conditions": "Mus musculus, B16, effector:target 15:1, 24 hours at 37°, read-out: % Cytotoxicity (percent release drug-treated minus vehicle treated); for cytotoxicity at 1 mg/kg: 1 mg/kg injected to mice; for cytotoxicity at 5 mg/kg: 5 mg/kg injected to mice; for cytotoxicity at 25 mg/kg: 25 mg/kg injected to mice", "procedure": "Peritoneal Exudate Cell Mediated Cytotoxicity in Vitro\nPeritoneal exudate cells (PEC) from normal mice injected with immune potentiators or drug vehicle were harvested by gentle lavage with 3 ml cold RPMI 1640 medium (Grand Island Biological Co., N.Y.) supplemented with 5 units of heparin per ml of medium. Macrophages were identified morphologically, counted, and adjusted to 7.5×10^5 cells per ml of tissue culture medium; 0.2 ml volumes were added to microtiter wells containing 10^4 B-16 cells with ^125 IUDR label (effector: target cell ratio=15:1). After 24 hours at 37° in 5% CO2, supernatants were decanted and the adherent cells washed 3 times with pre-warmed RPMI 1640; the supernatant and washings were pooled and retained for counting. The adherent cells were treated with 1% sodium dodecyl sulfate (SDS) at room temperature for 30 minutes. The SDS-treated cells were harvested and the cells washed 3 times with RPMI 1640; cells and washings were pooled for counting. Supernatants and cells were counted in a Searle 1185 gamma counter. Results were expressed as: [formula]\nThe table below gives the percent cytotoxicity for 1-I, 2-I and 3-I wherein Percent Cytotoxicity equals (Percent release from drug-treated) minus (Percent release from vehicle treated)."}, "[1]": {"test_system": "encephalomyocarditis (EMC) virus", "assay": "Prophylactic use against encephalomyocarditis (EMC) viral infection in mice", "type": "in vivo, mice (female albino)", "conditions": "single intraperitoneal, 18-24 hours before EMC challenge, tenth day after challenge, average of 2 runs", "procedure": "Prophylactic use of compounds (1-I), (2-I) and (3-I) against infection by encephalomyocardis viral infection in mice\nThree groups of ten female albino micce (20-25 g. body weight) were given single 0.5 ml. intraperitoneal injections containing dosage levels of 1.5, 5, and 15 mg. of the appropriate compound/kg. body weight, respectively. A fourth control group was given no such injection. Eighteen to twenty-four hours later all four groups were challenged with a 0.2 ml. subcutaneous injection containing 20-30 times the LD50, the dosage level causing a 50% death rate in ten days, of encephalomyocarditis (EMC) virus. The following relative average survival rates were found from an average of 2 such runs for compounds 1-I, 2-I and 3-I.\nAntiviral activity is expressed as the average relative survival (Sr) of 2 runs of experimental groups compared to the controls on the tenth day after challenge. Sr is defined by the formula [formula] wherein Sr=relative survival;\nSx =percent survival after ten days in experimental group;\nXi =number of survivors on the ith day in experimental group;\nei =number of survivors on the ith day in control group."}, "Sarcoma 180J": {"test_system": "Sarcoma 180J", "assay": "Sarcoma 180J Model for Assessment of Tumor Rejection", "type": "in vivo, CD-1 mice (female)", "conditions": "for %ILS (percent life span): day 1 after 10^6 S-180J cells i.p., observed until death or 40 days, TWEEN 80/glycerol aqueous suspension; for numbers of 40 day survivors: six mice per group", "procedure": "Sarcoma 180J Model for Assessment of Tumor Rejection\nSix female CD-1 mice (20-25 g) per group received 10^6 S-180J cells (5-8 days old) intraperitoneally (i.p.) on day O. The animals then received formulated drug (0.1 ml) at the desired dose on day 1 following tumor cell injection. The animals were observed until death or 40 days, whichever occurred first. Results using compounds 1-I, 2-I, 3I and 4I are expressed as percent life span (% ILS).\n^ a compounds were formulated in TWEEN 80/glycerol aqueous\n^b Numbers in parenthesis are numbers of 40 day survivors."}},
  "data": [
    {"smiles": "CCCCCCCCCCCCCCCCN(CCCCCCCCCCCCCCCC)Cc1cccc(C(O)CNCC)c1", "note": "(stereo not shown) [Compound 1-I, N-ethyl-2-[meta-N,N-di-n-hexadecylaminomethylphenyl]ethanolamine]", "values": [
      {"measurement": "cytotoxicity at 1 mg/kg", "setting": "B-16 cells", "result": 35.7, "unit": "%"},
      {"measurement": "cytotoxicity at 5 mg/kg", "setting": "B-16 cells", "result": 25.6, "unit": "%"},
      {"measurement": "cytotoxicity at 25 mg/kg", "setting": "B-16 cells", "result": 23.8, "unit": "%"},
      {"measurement": "Average Relative Survival (Sr)", "setting": "[1]; 1.5 mg/kg", "result": 24.5},
      {"measurement": "Average Relative Survival (Sr)", "setting": "[1]; 5 mg/kg", "result": 65.5},
      {"measurement": "Average Relative Survival (Sr)", "setting": "[1]; 15 mg/kg", "result": 70},
      {"measurement": "%ILS (percent life span)", "setting": "Sarcoma 180J; 5 mg/kg", "result": 150, "unit": "%"},
      {"measurement": "numbers of 40 day survivors", "setting": "Sarcoma 180J; 5 mg/kg", "result": 1},
      {"measurement": "%ILS (percent life span)", "setting": "Sarcoma 180J; 15 mg/kg", "result": 210, "unit": "%"},
      {"measurement": "numbers of 40 day survivors", "setting": "Sarcoma 180J; 15 mg/kg", "result": 4},
      {"measurement": "%ILS (percent life span)", "setting": "Sarcoma 180J; 50 mg/kg", "result": 235, "unit": "%"},
      {"measurement": "numbers of 40 day survivors", "setting": "Sarcoma 180J; 50 mg/kg", "result": 5}
    ]},
    {"smiles": "CCCCCCCCCCCCCCCCN(CCCCCCCCCCCCCCCC)Cc1cccc(C(O)CNC(C)(C)C)c1", "note": "(stereo not shown) [Compound 2-I, N-t-butyl-2-[meta-N,N-di-n-hexadecylamino-methylphenyl]ethanolamine]", "values": [
      {"measurement": "cytotoxicity at 1 mg/kg", "setting": "B-16 cells", "result": 31.2, "unit": "%"},
      {"measurement": "cytotoxicity at 5 mg/kg", "setting": "B-16 cells", "result": 33.6, "unit": "%"},
      {"measurement": "cytotoxicity at 25 mg/kg", "setting": "B-16 cells", "result": 27.2, "unit": "%"},
      {"measurement": "Average Relative Survival (Sr)", "setting": "[1]; 1.5 mg/kg", "result": 42.5},
      {"measurement": "Average Relative Survival (Sr)", "setting": "[1]; 5 mg/kg", "result": 62.5},
      {"measurement": "Average Relative Survival (Sr)", "setting": "[1]; 15 mg/kg", "result": 65.5},
      {"measurement": "%ILS (percent life span)", "setting": "Sarcoma 180J; 5 mg/kg", "result": 154, "unit": "%"},
      {"measurement": "numbers of 40 day survivors", "setting": "Sarcoma 180J; 5 mg/kg", "result": 1},
      {"measurement": "%ILS (percent life span)", "setting": "Sarcoma 180J; 15 mg/kg", "result": 134, "unit": "%"},
      {"measurement": "%ILS (percent life span)", "setting": "Sarcoma 180J; 50 mg/kg", "result": 160, "unit": "%"},
      {"measurement": "numbers of 40 day survivors", "setting": "Sarcoma 180J; 50 mg/kg", "result": 2}
    ]},
    {"smiles": "CCCCCCCCCCCCCCCCN(CCCCCCCCCCCCCCCC)Cc1cccc(C(O)CNC(C)C)c1", "note": "(stereo not shown) [Compound 3-I, N-isopropyl-2-[meta-N,N-di-n-hexadecylaminomethylphenyl]ethanolamine]", "values": [
      {"measurement": "cytotoxicity at 1 mg/kg", "setting": "B-16 cells", "result": 42.4, "unit": "%"},
      {"measurement": "cytotoxicity at 5 mg/kg", "setting": "B-16 cells", "result": 35.1, "unit": "%"},
      {"measurement": "cytotoxicity at 25 mg/kg", "setting": "B-16 cells", "result": 33.4, "unit": "%"},
      {"measurement": "Average Relative Survival (Sr)", "setting": "[1]; 1.5 mg/kg", "result": 27},
      {"measurement": "Average Relative Survival (Sr)", "setting": "[1]; 5 mg/kg", "result": 54},
      {"measurement": "Average Relative Survival (Sr)", "setting": "[1]; 15 mg/kg", "result": 87.5},
      {"measurement": "%ILS (percent life span)", "setting": "Sarcoma 180J; 5 mg/kg", "result": 154, "unit": "%"},
      {"measurement": "numbers of 40 day survivors", "setting": "Sarcoma 180J; 5 mg/kg", "result": 2},
      {"measurement": "%ILS (percent life span)", "setting": "Sarcoma 180J; 15 mg/kg", "result": 185, "unit": "%"},
      {"measurement": "numbers of 40 day survivors", "setting": "Sarcoma 180J; 15 mg/kg", "result": 4},
      {"measurement": "%ILS (percent life span)", "setting": "Sarcoma 180J; 50 mg/kg", "result": 212, "unit": "%"},
      {"measurement": "numbers of 40 day survivors", "setting": "Sarcoma 180J; 50 mg/kg", "result": 6}
    ]},
    {"smiles": "CCCCCCCCCCCCCCCCN(CCCCCCCCCCCCCCCC)Cc1cccc(C(O)CN)c1", "note": "(stereo not shown) [Compound 4-I, 2-[meta-N,N-di-n-hexadecylaminomethylphenyl]ethanolamine]", "values": [
      {"measurement": "%ILS (percent life span)", "setting": "Sarcoma 180J; 5 mg/kg", "result": 125, "unit": "%"},
      {"measurement": "%ILS (percent life span)", "setting": "Sarcoma 180J; 15 mg/kg", "result": 181, "unit": "%"},
      {"measurement": "numbers of 40 day survivors", "setting": "Sarcoma 180J; 15 mg/kg", "result": 4},
      {"measurement": "%ILS (percent life span)", "setting": "Sarcoma 180J; 50 mg/kg", "result": 212, "unit": "%"},
      {"measurement": "numbers of 40 day survivors", "setting": "Sarcoma 180J; 50 mg/kg", "result": 6}
    ]}
  ]
}
